In article PMC8395335, “Serotonergic–Muscarinic Interaction within the Prefrontal Cortex as a Novel Target to Reverse Schizophrenia-Related Cognitive Symptoms” (International Journal of Molecular Sciences, 2021):
Where two headings read alike, the source gives them in different places. One block for each compound: values may come before it.

What was measured:
[1] = Pharmacokinetic analysis of drug-drug interactions (plasma, FC concentration, FC penetration); type: in vivo, mice; details: for Kp at 30 min: frontal cortex/plasma
Description: The experiment was performed using the methods described by Bridges et al. and in our previous studies.
The pharmacokinetic analysis was performed in the blood and prefrontal cortex. […] Plasma and FC samples were stored at −80 °C until analysis.
The investigated compounds were administered alone at the top dose (F15599—0.1 mg/kg, VU0357017—5 mg/kg, VU0152100—1 mg/kg, and VU0238429—5 mg/kg) and in combinations of muscarinic ligands at subeffective doses with F15599 at subeffective dose (F15599 + VU0357017 0.05 and 0.15 mg/kg, F15599 + VU0152100 0.05 and 0.05 mg/kg, F15599 + VU0238429 0.05 and 1 mg/kg). The FC and blood were collected on the eighth day, 30 min after administration. All mice were parallelly treated with MK-801 (0.3 mg/kg) for seven consecutive days.
On the day of analysis, frozen whole mouse brain tissues were weighed and homogenized in 1:2 (w/v) volumes of ice-cold acetonitrile containing 0.1% FA and the internal standard mix. Samples were homogenized using a Metal Bead Lysing Matrix, vortexed for 1 min, shaken for 20 min at 4 °C on Thermomixer C, and centrifuged at 14,000× g rpm for 20 min at 4 °C. Finally, 50 µL of supernatant were diluted with 0.1% FA in water (1:1, v/v) and analyzed using HPLC/MS/MS.
The sample extraction of plasma (20 μL) was performed after spiking with the internal standard mix using the protein precipitation method and three volumes of ice-cold acetonitrile containing 0.1% formic acid. The extract was vortexed, incubated on ice for 20 min and centrifuged at 14,000× g rpm for 20 min at 4 °C. The supernatant was diluted with 0.1% FA in water (1:1, v/v) and analyzed by means of HPLC/MS/MS using a QTRAP 4500 (AB Sciex) mass spectrometer in positive ion mode in Multiple Reaction Monitoring (MRM screening) coupled with UHPLC (NEXERA XR, Shimadzu). Chromatographic separation was achieved on a Synergi 4 µm Fusion-RP 80 A 50 × 2 mm (Phenomenex) column at a flow rate of 0.2 mL/min. The gradient program was as follows: 20% B (0.3 min), 20–100% B (1.7 min), 100% B (3 min), 100–20% B (0.1 min), 20% B (2 min), solvent A (95:5:0.1% formic acid in water:methanol) and solvent B (methanol containing 0.1% formic acid). The column temperature was set to 40 °C. Analyst software was used to control the instrument and collect data. The ion transfer tube temperature was 300 °C. The spray voltage, collision energy, declastering potential, and gas parameters were optimized to achieve the maximal response using the test compounds. Selected reaction monitoring was carried out using the transition parameters. Calibration curves were constructed, and a linear response was obtained in the range of 0.25–500 ng/mL (VU357017, VU0152100, and F15599) and 1.25–2500 ng/mL (VU0238429) by spiking known amounts of each compound in blank brain homogenates and plasma. For VU0357017 and F15599 IS VU0152100 was used as internal standard. Sample concentration of internal standard was 100 ng/mL for IS VU0238429 and 50 ng/mL for IS VU0152100.
Brain penetration was calculated as FC/plasma ratio × 100%.

MK-801-treated mice = assay: Novel object recognition (NOR) test, MK-801-induced deficits; type: in vivo; details: for Reversal of MK-801-induced disruptions in NOR test by combined administration: 7 days; for Effect of combined administration on MK-801-induced memory deficits in the NOR test: subeffective doses
Description: Drugs were administered on two different schedules: (1) acute administration of compounds 45 min (WAY100635—5-HT1A antagonist) or 30 min (VU0357017, VU152100, VU0238429, and F15599) before MK-801 (also administered once 30 min before the test in Y-maze or T1 in NOR test); and (2) prolonged administration (once per day for 7 consecutive days) of the compounds and MK-801 with the last administration 24 h before the test (NOR test) or at the day of the test (Y-maze). […] Schedules of administration are presented graphically in Figure 2. The subeffective doses of the compounds for acute administration in the NOR test were chosen based on our previous research (see: [22, 23]) while dose-dependent studies of the activity of the compounds in reversing disruptions in the Y-maze or after prolonged administration along with MK-801 were performed within this study. Different vehicles were used throughout the study: (1) 0.9% NaCl and (2) 10% Tween 80. Vehicles were administered to all animals (e.g., control mice and MK-801-treated mice) on the same schedule as drugs were administered to the appropriate drug-treated groups of mice. Neither solvent exerted effects on animal behavior.
Male Albino Swiss mice (Charles River, Sulzfeld, Germany) weighing 20–25 g at the beginning of the experiments were used in the studies. The animals were housed in a room with a 12:12 h light-dark cycle at a temperature of 22 ± 1 °C with food and water available ad libitum. The experimental groups consisted of 8–10 animals. All drugs were administered intraperitoneally (i.p.) at a volume of 10 mL/kg. The behavioral experiments were performed by an observer who was blinded to the treatment. The procedures were conducted in accordance with the European Communities Council Directive of 22 September 2010 (2010/63/EU) and Polish legislation acts concerning animal experimentation and were approved by the II Local Ethics Committee by the Maj Institute of Pharmacology, Polish Academy of Sciences in Krakow (15/2020, 240/2020).
In acute experiments, the tested compounds (alone or in combination) were administered 30 min before MK-801 (0.3 mg/kg), which was administered 30 min before the test or training trial (T1) in the NOR test. In chronic experiments, the tested compounds (alone or in combination) and MK-801 were administered for seven days. Behavioral tests were performed on the eighth day.
The NOR test was performed as described previously. Briefly, the habituation, training and test trial were carried out in a dark room in a black, plastic rectangular arena illuminated with a 355 lux bulb. During the habituation trial, the animals were allowed to explore the arena in the absence of objects (10 min/day for 2 days). The next day, the training (T1) and test (T2) trials were performed. Throughout T1, mice were allowed to freely explore two identical objects (5 min), one of which was subsequently replaced by a novel object in T2 (1 h later, 5 min of exploration). Time spent exploring (i.e., sniffing or touching) the familiar (Tfamiliar) or novel object (Tnovel) was measured by a trained observer, and then the recognition index was calculated for each mouse [(Tnovel − Tfamiliar)/(Tfamiliar + Tnovel)] × 100.

[2] = Albino Swiss, mouse, in vivo, 30 min
[3] = F15599 0.05 mg/kg with VU0238429 1 mg/kg (subeffective doses)

PFC ([1]; Albino Swiss, mouse, in vivo, 0.1 mg/kg, 30 min): 21.57 ± 1.26 ng/mL | concentration at 30 min ([1]; Albino Swiss, mouse, in vivo, 0.1 mg/kg, PFC): 18.3 ± 0.84 ng/mL | Decrease of FC penetration after prolonged administration compared to acute [1, 2]: ca. 50% | Decrease of FC penetration of F15599 when administered simultaneously [1, 2]: ~ 50% | Effect of chronic administration of subeffective doses (combinations) on brain penetration ([1]; mouse, in vivo): increased
SMILES: Cc1cnc(CNCC2(F)CCN(C(=O)c3ccc(F)c(Cl)c3)CC2)nc1 [F15599]
Reversal of MK-801-induced deficits in the NOR test (recognition index) (MK-801-treated mice; 7 days with MK-801, 0.025 mg/kg i.p.): ineffective | Reversal of MK-801-induced deficits in the NOR test (recognition index) (MK-801-treated mice; 7 days with MK-801, 0.1 mg/kg i.p.): reversed | Reversal of MK-801-induced disruptions in NOR test by combined administration (MK-801-treated mice; F15599 0.05 mg/kg with VU0152100 0.05 mg/kg (subeffective doses)): reversed | Reversal of MK-801-induced disruptions in NOR test by combined administration (MK-801-treated mice; [3]): reversed | Reversal of MK-801-induced disruptions in NOR test by combined administration (MK-801-treated mice; F15599 0.05 mg/kg with VU0357017 0.15 mg/kg (subeffective doses)): reversed | Reversal of MK-801-induced deficits in the NOR test (recognition index) (MK-801-treated mice; acute, 0.05 mg/kg i.p., 30 min before MK-801): ineffective | Reversal of MK-801-induced deficits in the NOR test (recognition index) (MK-801-treated mice; acute, 0.1 mg/kg i.p., 30 min before MK-801 (0.3 mg/kg)): reversed | Reversal of MK-801-induced deficits in the NOR test (recognition index) (MK-801-treated mice; acute, 0.5 mg/kg i.p., 30 min before MK-801): reversed | Effect of combined administration on MK-801-induced memory deficits in the NOR test (MK-801-treated mice; acute, F15599 with VU0152100): no effect | Effect of combined administration on MK-801-induced memory deficits in the NOR test (MK-801-treated mice; acute, F15599 with VU0238429): no effect | Effect of combined administration on MK-801-induced memory deficits in the NOR test (MK-801-treated mice; acute, F15599 with VU0357017): no effect

Kp at 30 min ([1]; Albino Swiss, mouse, intraperitoneal, acute, combination F15599 0.05 mg/kg + VU0238429 1 mg/kg, read-out: PFC Penetration): 0.36 | Kp at 30 min ([1]; Albino Swiss, mouse, intraperitoneal, acute, top doses alone (VU0357017 5, VU0152100 1, VU0238429 5, F15599 0.1 mg/kg), 30 min after administration, read-out: PFC Penetration (FC/plasma ratio x 100%)): 0.53 | Kp at 30 min ([1]; Albino Swiss, mouse, intraperitoneal, chronic (7 days with MK-801), combination F15599 0.05 mg/kg + VU0238429 1 mg/kg, read-out: PFC Penetration): 0.15 | Kp at 30 min ([1]; Albino Swiss, mouse, intraperitoneal, chronic (7 days with MK-801), top doses alone (VU0357017 5, VU0152100 1, VU0238429 5, F15599 0.1 mg/kg), read-out: PFC Penetration (FC/plasma ratio x 100%)): 0.21 | concentration at 30 min ([1]; Albino Swiss, mouse, plasma, intraperitoneal, acute, combination F15599 0.05 mg/kg + VU0238429 1 mg/kg, read-out: Plasma): 120 ± 13.9 ng/mL | concentration at 30 min ([1]; Albino Swiss, mouse, plasma, intraperitoneal, acute, top doses alone (VU0357017 5, VU0152100 1, VU0238429 5, F15599 0.1 mg/kg), 30 min after administration, read-out: Plasma): 486 ± 178 ng/mL | concentration at 30 min ([1]; Albino Swiss, mouse, plasma, intraperitoneal, chronic (7 days with MK-801), combination F15599 0.05 mg/kg + VU0238429 1 mg/kg, read-out: Plasma): 35 ± 8.89 ng/mL | concentration at 30 min ([1]; Albino Swiss, mouse, plasma, intraperitoneal, chronic (7 days with MK-801), top doses alone (VU0357017 5, VU0152100 1, VU0238429 5, F15599 0.1 mg/kg), read-out: Plasma): 844 ± 235 ng/mL | concentration at 30 min ([1]; Albino Swiss, mouse, prefrontal cortex (FC), intraperitoneal, acute, combination F15599 0.05 mg/kg + VU0238429 1 mg/kg, read-out: PFC): 43.1 ± 1.81 ng/mL | concentration at 30 min ([1]; Albino Swiss, mouse, prefrontal cortex (FC), intraperitoneal, acute, top doses alone (VU0357017 5, VU0152100 1, VU0238429 5, F15599 0.1 mg/kg), 30 min after administration, read-out: PFC): 256 ± 32.1 ng/mL | concentration at 30 min ([1]; Albino Swiss, mouse, prefrontal cortex (FC), intraperitoneal, chronic (7 days with MK-801), combination F15599 0.05 mg/kg + VU0238429 1 mg/kg, read-out: PFC): 5.13 ± 0.83 ng/mL | concentration at 30 min ([1]; Albino Swiss, mouse, prefrontal cortex (FC), intraperitoneal, chronic (7 days with MK-801), top doses alone (VU0357017 5, VU0152100 1, VU0238429 5, F15599 0.1 mg/kg), read-out: PFC): 179 ± 25 ng/mL | Fold higher penetration to the FC than to whole brain ([1]; FC penetration versus earlier whole-brain data): more than 6 times | PFC Penetration (FC/plasma ratio x 100%) ([1]; acute, top doses alone (VU0357017 5, VU0152100 1, VU0238429 5, F15599 0.1 mg/kg), 30 min after administration): 53% | PFC Penetration (FC/plasma ratio x 100%) ([1]; chronic (7 days with MK-801), top doses alone (VU0357017 5, VU0152100 1, VU0238429 5, F15599 0.1 mg/kg)): 21% | Decrease of FC penetration after acute concomitant administration with F15599 ([1]; subeffective doses, compared to top dose alone): ~ 40% | Decrease of FC penetration after prolonged administration compared to acute ([1]; top doses alone, animals treated with MK-801): ca. 50%
SMILES: COc1ccc(CN2C(=O)C(=O)c3cc(OC(F)(F)F)ccc32)cc1 [VU0238429]
Reversal of MK-801-induced deficits in the NOR test (recognition index) (MK-801-treated mice; 7 days with MK-801, 0.5 mg/kg): ineffective | Reversal of MK-801-induced deficits in the NOR test (recognition index) (MK-801-treated mice; 7 days with MK-801, 1 mg/kg): ineffective | Reversal of MK-801-induced deficits in the NOR test (recognition index) (MK-801-treated mice; 7 days with MK-801, 5 mg/kg): active | Reversal of MK-801-induced disruptions in NOR test by combined administration (MK-801-treated mice; [3]): reversed | Effect of top dose on MK-801-induced deficits in the NOR test (MK-801-treated mice; acute, 5 mg/kg i.p., alone): pro-cognitive effect | Effect of combined administration on MK-801-induced memory deficits in the NOR test (MK-801-treated mice; acute, F15599 with VU0238429): no effect
